From US7790753B2, “Derivatives of N-[phenyl(alkylpiperidine-2-yl)methyl]benzamide, preparation method thereof and application of same in therapeutics” (sanofi-aventis, priority 2003, dated 2010) come the findings set out here.

pIC50: −log10 of the molar value. Counter-ions that a name gives are not always drawn.

Test [1] deals with T1, native human transporter glyt1 (Homo sapiens, UniProt P48067).
T1 construct: SK-N-MC cells (human neuroepithelial cells) expressing the native human transporter glyt1; endogenous in cells; host or cells: SK-N-MC cells (human neuroepithelial cells)
T1 sequence (P48067 1-706): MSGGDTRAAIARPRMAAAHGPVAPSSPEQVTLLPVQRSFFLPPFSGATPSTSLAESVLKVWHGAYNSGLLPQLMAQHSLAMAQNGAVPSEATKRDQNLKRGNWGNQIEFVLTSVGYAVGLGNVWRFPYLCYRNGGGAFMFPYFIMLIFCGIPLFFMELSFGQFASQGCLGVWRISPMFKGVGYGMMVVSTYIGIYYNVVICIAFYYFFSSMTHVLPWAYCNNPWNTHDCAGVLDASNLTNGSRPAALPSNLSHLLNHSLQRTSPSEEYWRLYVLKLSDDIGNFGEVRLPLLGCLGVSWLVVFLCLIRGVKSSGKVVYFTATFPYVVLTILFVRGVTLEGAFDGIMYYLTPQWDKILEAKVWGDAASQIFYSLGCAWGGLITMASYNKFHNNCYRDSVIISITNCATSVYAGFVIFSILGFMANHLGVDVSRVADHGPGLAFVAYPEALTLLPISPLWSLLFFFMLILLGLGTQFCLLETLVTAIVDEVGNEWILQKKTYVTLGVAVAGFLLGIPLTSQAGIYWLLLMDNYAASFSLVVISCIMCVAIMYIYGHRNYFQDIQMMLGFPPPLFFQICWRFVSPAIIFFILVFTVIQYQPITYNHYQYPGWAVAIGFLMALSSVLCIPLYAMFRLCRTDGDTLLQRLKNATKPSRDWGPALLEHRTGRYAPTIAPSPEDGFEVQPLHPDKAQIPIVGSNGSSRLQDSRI
The test is described as follows: Glycine transportation ([14C]glycine uptake) in SK-N-MC cells expressing the native human transporter glyt1. It is filed as cell-based. Particulars: 10 μM [14C]glycine, 10 minutes at 37° C., read-out: IC50, concentration of compound that reduces by 50% the specific uptake of glycine. The method, then:
Study of Glycine Transportation in SK-N-MC Cells Expressing the Native Human Transporter glyt1
The uptake of [^14C]glycine is studied in SK-N-MC cells (human neuroepithelial cells) expressing the native human transporter glyt1 by measuring the radioactivity incorporated in the presence or absence of the test compound. The cells are cultured as a monolayer for 48 hours in plates pretreated with 0.02% fibronectin. On the day of the experiment, the culture medium is removed and the cells are washed with Krebs-HEPES buffer ([4-(2-hydroxyethyl)-1-piperazineethanesulfonic acid) at pH 7.4. After preincubation for 10 minutes at 37° C. in the presence either of buffer (control batch) or of test compound at various concentrations or of 10 mM glycine (determination of the nonspecific uptake), 10 μM of [^14C]glycine (specific activity 112 mCi/mmol) are then added.
Incubation is continued for 10 minutes at 37° C., and the reaction is quenched by washing twice with pH 7.4 Krebs-HEPES buffer. The radioactivity incorporated by the cells is then estimated after adding 100 μl of liquid scintillant and stirring for 1 hour. Counting is performed on a Microbeta Tri-Lux™ counter. The efficacy of the compound is determined by means of the IC50, which is the concentration of compound that reduces by 50% the specific uptake of glycine, defined by the difference in radioactivity incorporated by the control batch and the batch that received 10 mM of glycine.

For test [2], the target named is T2, transporter glyt2 (Mus musculus, UniProt Q761V0).
T2 construct: from tissue; host or cells: spinal cord of male OF1 Iffa Credo mice
T2 sequence (Q761V0 1-799): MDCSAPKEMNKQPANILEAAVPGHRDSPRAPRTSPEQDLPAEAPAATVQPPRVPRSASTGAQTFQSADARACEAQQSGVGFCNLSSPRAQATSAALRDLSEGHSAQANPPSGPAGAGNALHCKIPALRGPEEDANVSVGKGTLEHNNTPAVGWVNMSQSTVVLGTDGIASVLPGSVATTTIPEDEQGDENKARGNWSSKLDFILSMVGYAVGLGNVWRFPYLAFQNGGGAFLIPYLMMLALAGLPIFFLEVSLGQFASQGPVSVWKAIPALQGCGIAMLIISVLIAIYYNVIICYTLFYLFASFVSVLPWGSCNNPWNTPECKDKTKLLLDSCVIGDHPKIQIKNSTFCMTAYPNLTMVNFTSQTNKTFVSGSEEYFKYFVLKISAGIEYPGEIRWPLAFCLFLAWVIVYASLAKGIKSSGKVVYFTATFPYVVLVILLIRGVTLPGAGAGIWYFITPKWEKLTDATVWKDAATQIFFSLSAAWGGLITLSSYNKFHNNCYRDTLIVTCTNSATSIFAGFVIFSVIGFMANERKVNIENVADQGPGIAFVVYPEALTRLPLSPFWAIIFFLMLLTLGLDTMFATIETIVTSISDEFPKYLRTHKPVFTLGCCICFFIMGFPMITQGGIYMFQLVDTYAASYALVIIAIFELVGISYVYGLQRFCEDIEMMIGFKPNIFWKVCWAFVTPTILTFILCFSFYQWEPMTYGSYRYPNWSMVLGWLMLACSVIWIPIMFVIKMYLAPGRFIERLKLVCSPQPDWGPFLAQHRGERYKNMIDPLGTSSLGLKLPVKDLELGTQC
The test is described as follows: Glycine transportation ([14C]glycine uptake) in mouse spinal cord homogenate. The format is biochemical. The conditions noted are these: 10 μM [14C]glycine, 10 minutes at 25° C., read-out: IC50, concentration capable of reducing by 50% the specific uptake of glycine. An excerpt: Study of the Glycine Transportation in Mouse Spinal Cord Homogenate
The uptake of [^14C]glycine by the transporter glyt2 is studied in mouse spinal cord homogenate by measuring the radioactivity incorporated in the presence or absence of test compound.
After euthanizing the animals (male OF1 Iffa Credo mice weighing 20 to 25 g on the day of the experiment), the spinal cord of each animal is rapidly removed, weighed and stored on ice. The samples are homogenized in pH 7.4 Krebs-HEPES buffer ([4-(2-hydroxyethyl)-1-piperazineethanesulfonic acid), in a proportion of 25 ml/g of tissue.
50 μl of homogenate are preincubated for 10 minutes at 25° C. in the presence of pH 7.4 Krebs-HEPES buffer and of test compound at various concentrations, or of 10 mM of glycine to determine the nonspecific uptake. [^14C]glycine (specific activity=112 mCi/mmol) is then added over 10 minutes at 25° C. to a final concentration of 10 μM. The reaction is quenched by vacuum filtration and the radioactivity is estimated by solid scintillation by counting on a Microbeta Tri-Lux™ counter. The efficacy of the compound is determined by means of the IC50, the concentration capable of reducing by 50% the specific uptake of glycine, defined by the difference in radioactivity incorporated by the control batch and the batch that received 10 mM of glycine.

For `CC1CCCC(C(NC(=O)c2cccc(C(F)(F)F)c2Cl)c2ccccc2)N1C` (stereo not drawn) [Compound 1, Cis-threo-2-chloro-N-[(1,6-dimethyl-2-piperidyl)(phenyl)methyl]-3-(trifluoromethyl)benzamide hydrochloride 1:1], the pIC50 in test [1] was 6.29; in test [2], 6.92.

On to `CC1CCC(C(NC(=O)c2cccc(C(F)(F)F)c2Cl)c2ccc(F)cc2)N(C)C1` (stereo not drawn) [Compound 5, Trans-threo-2-chloro-N-[(1,5-dimethyl-2-piperidyl)(4-fluorophenyl)methyl]-3-(trifluoromethyl)benzamide hydrochloride 1:1], for which, in test [1], the pIC50 was 7.00.

Take `CC1CCN(C)C(C(NC(=O)c2cccc(C(F)(F)F)c2Cl)c2ccccc2)C1` (stereo not drawn) [Compound 9, Cis-threo-2-chloro-N-[(1,4-dimethyl-2-piperidyl)(phenyl)methyl]-3-(trifluoromethyl)benzamide hydrochloride 1:1]: the results for the pIC50 in test [1] and in test [2] were 7.05 and 7.15, respectively.

As to `CN1CCCCC1(C)C(NC(=O)c1cccc(C(F)(F)F)c1Cl)c1ccccc1` (stereo not drawn) [Compound 10, Threo-2-chloro-N-[(1,2-dimethyl-2-piperidyl)(phenyl)methyl]-3-(trifluoromethyl)benzamide hydrochloride 1:1], the pIC50 in test [1] is 8.10.
